According to patent US20220089575A1, “FARNESOID X RECEPTOR AGONISTS AND USES THEREOF” (Metacrine, Inc., priority 2017, published 2022):

molecular target: T1, hFXR (Homo sapiens, UniProt Q96RI1); assay: In Vitro FXR Assay (TK): TK-ECRE-luc reporter in transfected CV-1 cells; type: cell-based; conditions: 18 hrs, luminescence, maximum efficacy of <25% of the Fexarmine control classified as '+'
T1 construct: expressed in transfected cells; host or cells: CV-1 cells
T1 sequence (Q96RI1 1-486): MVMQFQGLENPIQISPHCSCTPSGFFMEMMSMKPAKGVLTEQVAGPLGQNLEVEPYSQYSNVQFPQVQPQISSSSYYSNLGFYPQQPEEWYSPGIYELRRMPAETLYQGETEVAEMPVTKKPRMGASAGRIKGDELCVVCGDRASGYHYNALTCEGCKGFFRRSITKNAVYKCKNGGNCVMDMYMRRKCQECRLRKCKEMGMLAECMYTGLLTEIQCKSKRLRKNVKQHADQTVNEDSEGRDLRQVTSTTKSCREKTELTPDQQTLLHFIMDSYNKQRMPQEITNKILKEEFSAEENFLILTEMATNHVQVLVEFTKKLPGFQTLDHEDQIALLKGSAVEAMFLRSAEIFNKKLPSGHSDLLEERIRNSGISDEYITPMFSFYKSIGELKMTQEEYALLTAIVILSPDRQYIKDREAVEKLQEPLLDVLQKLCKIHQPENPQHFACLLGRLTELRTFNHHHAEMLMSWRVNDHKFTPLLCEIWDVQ
T1 sequence (P19793 1-462 partner): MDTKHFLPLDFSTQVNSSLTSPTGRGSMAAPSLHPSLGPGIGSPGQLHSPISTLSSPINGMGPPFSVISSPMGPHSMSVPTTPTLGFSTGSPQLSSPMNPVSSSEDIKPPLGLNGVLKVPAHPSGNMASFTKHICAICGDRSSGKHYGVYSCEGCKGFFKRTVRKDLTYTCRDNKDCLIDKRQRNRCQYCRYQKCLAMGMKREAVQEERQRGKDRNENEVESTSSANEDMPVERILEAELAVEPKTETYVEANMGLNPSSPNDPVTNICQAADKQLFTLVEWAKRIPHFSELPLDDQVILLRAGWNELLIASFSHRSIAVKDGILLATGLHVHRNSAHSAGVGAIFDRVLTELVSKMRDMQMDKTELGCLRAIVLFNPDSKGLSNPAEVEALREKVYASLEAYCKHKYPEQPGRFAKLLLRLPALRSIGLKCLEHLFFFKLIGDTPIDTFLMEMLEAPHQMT
How it was run: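 CV-1 cells in DMEM with 10% charcoal-stripped FBS were co-transfected with hFXR, hRXR, TK-ECRE-luc reporter and pCMX-YFP plasmids. After 18 h, compounds serially diluted in DMSO were added for a further 18 h, then cells were lysed and luminescence read.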

EC50 | SMILES
≤ 250 nM | COc1ccc([C@H]2CC[C@H](CN(c3cc(-c4coc(C5CC5)n4)ccn3)C(=O)[C@H]3CC[C@H](OC(=O)N[C@@H](C)CO)CC3)CC2)nc1C [Compound 6.93, trans-4-((4-(2-Cyclopropyloxazol-4-yl)pyridin-2-yl)((trans-4-(5-methoxy-6-methylpyridin-2-yl)cyclohexyl)methyl)carbamoyl)cyclohexyl ((S)-1-hydroxypropan-2-yl)carbamate]
≤ 250 nM | COc1ccc([C@H]2CC[C@H](CN(c3cc(-c4coc(C5CC5)n4)ccn3)C(=O)[C@H]3CC[C@H](OC(=O)N[C@H](C)CO)CC3)CC2)nc1C [Compound 6.94, trans-4-((4-(2-Cyclopropyloxazol-4-yl)pyridin-2-yl)((trans-4-(5-methoxy-6-methylpyridin-2-yl)cyclohexyl)methyl)carbamoyl)cyclohexyl ((R)-1-hydroxypropan-2-yl)carbamate]
≤ 250 nM | COc1ccc([C@H]2CC[C@H](CN(c3cc(-c4coc(C5CC5)n4)ccn3)C(=O)[C@H]3CC[C@H](OC(=O)NC[C@@H](C)O)CC3)CC2)nc1C [Compound 6.95, trans-4-((4-(2-Cyclopropyloxazol-4-yl)pyridin-2-yl)((trans-4-(5-methoxy-6-methylpyridin-2-yl)cyclohexyl)methyl)carbamoyl)cyclohexyl ((R)-2-hydroxypropyl)carbamate]
≤ 250 nM | COc1ccc([C@H]2CC[C@H](CN(c3cc(-c4coc(C5CC5)n4)ccn3)C(=O)[C@H]3CC[C@H](OC(=O)NC[C@H](C)O)CC3)CC2)nc1C [Compound 6.96, trans-4-((4-(2-Cyclopropyloxazol-4-yl)pyridin-2-yl)((trans-4-(5-methoxy-6-methylpyridin-2-yl)cyclohexyl)methyl)carbamoyl)cyclohexyl ((S)-2-hydroxypropyl)carbamate]
≤ 250 nM | COc1ccc([C@H]2CC[C@H](CN(c3cc(-c4coc(C5CC5)n4)ccn3)C(=O)[C@H]3CC[C@H](OC(=O)N4CC(O)C4)CC3)CC2)nc1C [Compound 7, trans-4-((4-(2-Cyclopropyloxazol-4-yl)pyridine-2-yl)((trans-4-(5-methoxy-6-methylpyridin-2-yl)cyclohexyl)methyl)carbamoyl)cyclohexyl 3-hydroxyazetidine-1-carboxylate]
≤ 250 nM | CN(C)c1ccc([C@H]2CC[C@H](CN(c3cccc(-c4cnc(C5CC5)s4)c3)C(=O)[C@H]3CC[C@H](OC(=O)N4CC(O)C4)CC3)CC2)cn1 [Compound 7.01, trans-4-((3-(2-Cyclopropylthiazol-5-yl)phenyl)((trans-4-(6-(dimethylamino)pyridin-3-yl)cyclohexyl)methyl)carbamoyl)cyclohexyl 3-hydroxyazetidine-1-carboxylate]
≤ 250 nM | COc1ccc([C@H]2CC[C@H](CN(c3cccc(-c4cnc(C5CC5)s4)c3)C(=O)[C@H]3CC[C@H](OC(=O)N4CC(O)C4)CC3)CC2)cc1C [Compound 7.02, trans-4-((3-(2-Cyclopropylthiazol-5-yl)phenyl)((trans-4-(4-methoxy-3-methylphenyl)cyclohexyl)methyl)carbamoyl)cyclohexyl 3-hydroxyazetidine-1-carboxylate]
≤ 250 nM | COc1ccc([C@H]2CC[C@H](CN(c3cc(-c4cnc(C5CC5)s4)ccn3)C(=O)[C@H]3CC[C@H](OC(=O)N4CC(O)C4)CC3)CC2)cc1C [Compound 7.03, trans-4-((4-(2-Cyclopropylthiazol-5-yl)pyridin-2-yl)((trans-4-(4-methoxy-3-methylphenyl)cyclohexyl)methyl)carbamoyl)cyclohexyl 3-hydroxyazetidine-1-carboxylate]
≤ 250 nM | COc1ccc([C@H]2CC[C@H](CN(c3cc(-c4cnc(C(C)C)s4)ccn3)C(=O)[C@H]3CC[C@H](OC(=O)N4CC(O)C4)CC3)CC2)cc1C [Compound 7.04, trans-4-((4-(2-Isopropylthiazol-5-yl)pyridin-2-yl)((trans-4-(4-methoxy-3-methylphenyl)cyclohexyl)methyl)carbamoyl)cyclohexyl 3-hydroxyazetidine-1-carboxylate]
≤ 250 nM | COc1ccc([C@H]2CC[C@H](CN(c3cccc(-c4cnc(C(C)C)s4)c3)C(=O)[C@H]3CC[C@H](OC(=O)N4CC(O)C4)CC3)CC2)nc1C [Compound 7.05, trans-4-((3-(2-Isopropylthiazol-5-yl)phenyl)((trans-4-(5-methoxy-6-methylpyridin-2-yl)cyclohexyl)methyl)carbamoyl)cyclohexyl 3-hydroxyazetidine-1-carboxylate]
≤ 250 nM | COc1ccc([C@H]2CC[C@H](CN(c3cc(-c4cnc(C5CC5)s4)ccn3)C(=O)[C@H]3CC[C@H](OC(=O)N4CC(O)C4)CC3)CC2)nc1C [Compound 7.06, trans-4-((4-(2-Cyclopropylthiazol-5-yl)pyridin-2-yl)((trans-4-(5-methoxy-6-methylpyridin-2-yl)cyclohexyl)methyl)carbamoyl)cyclohexyl 3-hydroxyazetidine-1-carboxylate]
≤ 250 nM | COc1ccc([C@H]2CC[C@H](CN(c3cc(-c4cnc(C(C)C)s4)ccn3)C(=O)[C@H]3CC[C@H](OC(=O)N4CC(O)C4)CC3)CC2)nc1C [Compound 7.07, trans-4-((4-(2-Isopropylthiazol-5-yl)pyridin-2-yl)((trans-4-(5-methoxy-6-methylpyridin-2-yl)cyclohexyl)methyl)carbamoyl)cyclohexyl 3-hydroxyazetidine-1-carboxylate]
≤ 250 nM | COc1ccc([C@H]2CC[C@H](CN(c3cc(-c4cnc(C5CC5)s4)ccn3)C(=O)[C@H]3CC[C@H](OC(=O)N4CC(O)C4)CC3)CC2)cc1C#N [Compound 7.08, trans-4-(((trans-4-(3-Cyano-4-methoxyphenyl)cyclohexyl)methyl)(4-(2-cyclopropylthiazol-5-yl)pyridin-2-yl)carbamoyl)cyclohexyl 3-hydroxyazetidine-1-carboxylate]
≤ 250 nM | COc1ccc([C@H]2CC[C@H](CN(c3cccc(-c4cnc(C5CC5)s4)c3)C(=O)[C@H]3CC[C@H](OC(=O)N4CC(O)C4)CC3)CC2)nc1C#N [Compound 7.09, trans-4-(((trans-4-(6-Cyano-5-methoxypyridin-2-yl)cyclohexyl)methyl)(3-(2-cyclopropylthiazol-5-yl)phenyl)carbamoyl)cyclohexyl 3-hydroxyazetidine-1-carboxylate]
≤ 250 nM | COc1ccc([C@H]2CC[C@H](CN(c3cc(-c4cnc(C5CC5)s4)ccn3)C(=O)[C@H]3CC[C@H](OC(=O)N4CC(O)C4)CC3)CC2)nc1C#N [Compound 7.10, trans-4-(((trans-4-(6-Cyano-5-methoxypyridin-2-yl)cyclohexyl)methyl)(4-(2-cyclopropylthiazol-5-yl)pyridin-2-yl)carbamoyl)cyclohexyl 3-hydroxyazetidine-1-carboxylate]
≤ 250 nM | COc1ccc([C@H]2CC[C@H](CN(c3cccc(-c4cnc(C5CC5)s4)c3)C(=O)[C@H]3CC[C@H](OC(=O)N4CC(O)C4)CC3)CC2)nc1C [Compound 7.11, trans-4-((3-(2-Cyclopropylthiazol-5-yl)phenyl)((trans-4-(5-methoxy-6-methylpyridin-2-yl)cyclohexyl)methyl)carbamoyl)cyclohexyl 3-hydroxyazetidine-1-carboxylate]
